By EC50 is commonly meant the concentration that produces a half-maximal response. Lower therefore signals greater potency. For orientation: IC50 means the midpoint of a concentration-inhibition curve. Low values mean inhibition by little substance, high ones a need for much substance.

Read-outs that look alike come from different tables or passages of the source.

Results on 2 compounds are retold here after patent US20110015162A1, “15,16-Methylene-17-hydroxy-19-nor-21-carboxylic acid-steroid Y-lactone derivative, use thereof and medicinal products containing the derivative” (Bayer Schering Pharma Aktiengesellschaft, priority 2007, published 2011).

Assay [1] concerns the target T1, androgen receptor (Homo sapiens, UniProt P10275).
T1 sequence (P10275 1-920): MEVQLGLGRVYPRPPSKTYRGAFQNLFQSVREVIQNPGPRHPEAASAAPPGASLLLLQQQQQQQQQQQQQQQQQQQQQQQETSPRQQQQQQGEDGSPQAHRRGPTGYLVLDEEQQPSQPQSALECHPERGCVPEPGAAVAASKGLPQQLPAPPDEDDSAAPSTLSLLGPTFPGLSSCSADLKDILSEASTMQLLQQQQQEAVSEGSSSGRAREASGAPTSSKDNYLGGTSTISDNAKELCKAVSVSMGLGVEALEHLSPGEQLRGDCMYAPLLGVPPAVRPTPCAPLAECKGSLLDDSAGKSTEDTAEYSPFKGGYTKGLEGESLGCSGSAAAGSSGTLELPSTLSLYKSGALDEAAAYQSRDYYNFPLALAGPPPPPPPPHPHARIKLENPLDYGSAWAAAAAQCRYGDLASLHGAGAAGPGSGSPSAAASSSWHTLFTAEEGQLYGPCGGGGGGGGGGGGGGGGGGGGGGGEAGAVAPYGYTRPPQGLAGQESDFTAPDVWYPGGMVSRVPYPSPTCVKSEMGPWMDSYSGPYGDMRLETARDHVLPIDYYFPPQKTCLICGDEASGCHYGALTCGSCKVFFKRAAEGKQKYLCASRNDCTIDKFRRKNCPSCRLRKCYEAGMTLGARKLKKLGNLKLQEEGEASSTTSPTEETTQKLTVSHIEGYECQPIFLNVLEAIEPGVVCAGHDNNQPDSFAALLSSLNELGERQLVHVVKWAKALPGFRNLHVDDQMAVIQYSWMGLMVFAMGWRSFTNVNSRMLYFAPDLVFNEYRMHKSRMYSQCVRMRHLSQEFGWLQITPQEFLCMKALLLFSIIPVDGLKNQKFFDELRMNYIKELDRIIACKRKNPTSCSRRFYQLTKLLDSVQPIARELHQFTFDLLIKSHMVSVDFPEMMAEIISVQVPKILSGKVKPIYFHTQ
Briefly: Androgenic/antiandrogenic action by transactivation test (PC3 reporter cells). Further details: expressed in transfected cells; host or cells: PC3 cells. In kind it is cell-based. The method in brief:
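PC3 reporter cells expressing androgen receptor with a steroid hormone-responsive promoter–luciferase construct were exposed to compounds for 16 h in triplicate. For antagonist mode, 0.05 nM R1881 was co-added for near-maximal stimulation. Luminescence was read after lysis and IC50 derived from dose–effect curves.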

Assay [2] has as its target T2, mineralocorticoid receptor (Homo sapiens, UniProt P08235).
T2 sequence (P08235 1-984): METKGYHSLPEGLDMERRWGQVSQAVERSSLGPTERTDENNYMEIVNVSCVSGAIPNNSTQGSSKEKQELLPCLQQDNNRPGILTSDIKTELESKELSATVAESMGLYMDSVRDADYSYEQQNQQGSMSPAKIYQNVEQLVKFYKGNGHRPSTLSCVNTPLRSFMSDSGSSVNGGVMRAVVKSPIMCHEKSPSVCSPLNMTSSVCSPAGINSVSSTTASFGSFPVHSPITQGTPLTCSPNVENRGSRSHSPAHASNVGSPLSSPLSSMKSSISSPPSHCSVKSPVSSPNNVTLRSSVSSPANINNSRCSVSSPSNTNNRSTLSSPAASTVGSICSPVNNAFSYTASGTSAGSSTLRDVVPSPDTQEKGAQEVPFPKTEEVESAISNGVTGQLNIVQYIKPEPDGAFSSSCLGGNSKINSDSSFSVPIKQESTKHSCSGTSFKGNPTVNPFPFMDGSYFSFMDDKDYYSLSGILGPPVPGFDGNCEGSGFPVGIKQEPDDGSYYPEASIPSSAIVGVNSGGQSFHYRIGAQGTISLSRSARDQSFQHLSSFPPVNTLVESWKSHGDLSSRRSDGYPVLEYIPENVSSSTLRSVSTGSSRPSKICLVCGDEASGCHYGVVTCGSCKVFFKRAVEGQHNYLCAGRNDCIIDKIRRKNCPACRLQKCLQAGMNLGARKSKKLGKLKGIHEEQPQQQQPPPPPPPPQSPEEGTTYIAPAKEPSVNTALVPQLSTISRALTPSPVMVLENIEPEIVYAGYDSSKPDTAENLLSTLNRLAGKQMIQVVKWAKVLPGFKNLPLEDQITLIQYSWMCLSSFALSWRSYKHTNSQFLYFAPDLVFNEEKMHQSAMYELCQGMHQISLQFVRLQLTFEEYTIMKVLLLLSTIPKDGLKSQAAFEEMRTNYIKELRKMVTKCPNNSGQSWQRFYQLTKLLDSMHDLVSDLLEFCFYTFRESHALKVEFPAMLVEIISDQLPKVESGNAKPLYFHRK
Briefly: Antimineralocorticoid action by transactivation test (MDCK reporter cells).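 As to Emax: percent inhibition of the aldosterone-stimulated reporter signal.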 The format is cell-based. As to conditions: for Emax: MDCK, read-out: Mineralocorticoid receptor Antagonism efficacy. Further details: expressed in transfected cells; host or cells: MDCK cells. The method in brief:
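MDCK reporter cells expressing human mineralocorticoid receptor, transiently carrying luciferase under a steroid hormone-responsive promoter.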

For assay [3], the target named is T1, androgen receptor. Briefly: Androgen receptor binding test. Particulars: reference substance 3H-testosterone. Further details: expressed in transfected cells.
For assay [4], the target named is T2, mineralocorticoid receptor. The experiment in a line: Mineralocorticoid receptor binding test. The arrangement: made in house; host or cells: Hi5 insect cells (cytosol). Particulars: reference substance 3H-aldosterone, cytosol from MR-expressing insect cells (Hi5). A digest of the protocol:
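Competitive binding measured with cytosol from Hi5 insect cells expressing the receptor. Displacement of ^3H-aldosterone as reference ligand gave the readout.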

Where [5] appears, read: PC-3, read-out: Androgen receptor Agonism efficacy.
Setting [6] is: PC-3, read-out: Androgen receptor Antagonism efficacy.

`CC[C@]12CC[C@H]3[C@@H]([C@@H]4C[C@@H]4C4=CC(=O)CC[C@@H]43)[C@@H]1[C@@H]1C[C@@H]1[C@@]21C=CC(=O)O1` [Example 2, 6α,7α;15β,16β-Bismethylene-17β-hydroxy-18-methyl-19-nor-17α-pregna-4,20(Z)-dien-3-one-21-carboxylic acid γ-lactone]: the half-maximal effective concentration (EC50) at androgen receptor [1] turned out to be 130 nM. In addition, the values for the Emax (on androgen receptor [1] (setting [5]); on androgen receptor [1] (setting [6]); in assay [2]) were 32.6%, 5% and 112%, respectively. Besides, the IC50 in assay [2] is 230 nM. The “Androgen receptor Competition factor” value on androgen receptor [3] came to 49.6. In addition, the “Mineralocorticoid receptor (MR) Competition factor” value in assay [4] was found to be 4.4.
In turn, `C[C@@H]1CC2=CC(=O)CC[C@@H]2[C@H]2CC[C@@]3(C)[C@@H]([C@@H]4C[C@@H]4[C@@]34C=CC(=O)O4)[C@@H]21` [Example 23A, 17β-Hydroxy-7α-methyl-15β,16β-methylene-19-nor-17α-pregna-4,20(2)-dien-3-one-21-carboxylic acid γ-lactone] showed an EC50 on androgen receptor [1] of 19 nM. The Emax on androgen receptor [1] (setting [5]) was 63.6%; on androgen receptor [1] (setting [6]), 5%; in assay [2] it was 105%. Also, the midpoint of inhibition in assay [2], the IC50, lay at 290 nM. Also, the “Androgen receptor Competition factor” value at androgen receptor [3] is 4.2. In assay [4], the “Mineralocorticoid receptor (MR) Competition factor” value is recorded as 1.9.
